Here are results for four molecules from US6162805A, “Use of an NK-1 receptor antagonist and an SSRI for treating obesity” (Merck Sharp & Dohme Limited, priority 1997, dated 2000).

Like-named read-outs stand apart in the source and are kept apart here. A value given as a limit tells only on which side of the number the result lay.

Experiment [1] has as its system separation-induced vocalisations in guinea-pig pups. The experiment can be described thus: Separation-Induced Vocalisation in guinea-pig pups. The note with it: for attenuation of separation-induced vocalisations compared with baseline: 30 minutes previously; for ED50: Cavia porcellus, read-out: guinea-pig vocalisation ID50. Type of experiment: in vivo. From the text:
Male and female guinea-pigs pups are housed in family groups with their mothers and littermates throughout the study. Experiments are commenced […] when the pups are at least 2 weeks old. Before entering an experiment, the pups may be screened to ensure that a vigorous vocalisation response is reproducibly elicited following maternal separation. The pups are placed individually in an observation cage (approximately 55 cm×39 cm×19 cm) in a room physically isolated from the home cage for approximately 15 minutes and the duration and/or number of vocalisation during this baseline period is recorded. […] On test days each pup receives an oral dose or an s.c. or i.p. injection of test compound or vehicle and is then immediately returned to the home cage with its mother and siblings for at least 30 to 60 minutes (or for up to 4 hours following an oral dose, dependent upon the oral pharmacokinetics of the test compound) before social isolation for 15 minutes as described above. The duration and/or number of vocalisation on drug treatment days may be expressed as a percentage of the pre-treatment baseline value for each animal or compared with values obtained in vehicle-treated animals. The same subjects may be retested once weekly for up to 6 weeks. Between 6 and 8 animals receive each test compound at each dose tested.
(v) Determine activity of compounds in assays sensitive to conventional serotonergic drugs (inhibition of pharmacologically evoked foot tapping in gerbils and/or inhibition of distress vocalisations in guinea-pig pups (Assay 4)).

The test system of the next experiment is foot tapping in gerbils. The experiment is described as follows: Gerbil Foot-Tapping. The class given is in vivo, Mongolian gerbil. The note with it: Meriones unguiculatus, iv, i.v. The source says:
CNS-penetrant NK-1 receptor antagonists for use in the present invention can be identified by their ability to inhibit foot tapping in gerbils induced by anxiogenic agents (such as pentagastrin) or central infusion of NK-1 receptor agonists such as GR73632, or caused by aversive stimulation such as foot shock or single housing, based on the method of Rupniak & Williams, Eur. J. Pharmacol., 1994, 265, 179. […] Alternatively, test compounds may be administered orally or by subcutaneous or intraperitoneal routes. A skin incision is then made in the midline of the scalp to expose the skull. An anxiogenic agent (e.g. pentagastrin) or a selective NK-1 receptor agonist (e.g. GR73632 ([…] ]-substance P-(7-11)) is infused directly into the cerebral ventricles (e.g. 3 pmol in 5 μl i.c.v., depending on test substance) by vertical insertion of a cuffed 27 gauge needle to a depth of 4.5 mm below bregma. The scalp incision is closed and the animal allowed to recover from anaesthesia in a clear perspex observation box (approximately 25 cm×20 cm×20 cm). The duration and/or intensity of hind foot tapping is then recorded continuously for approximately 5 minutes. Alternatively, the ability of test compounds to inhibit foot tapping evoked by aversive stimulation, such as foot shock or single housing, may be studied using a similar method of quantification.

For experiment [2], the system named is cisplatin-induced emesis in ferrets. The experiment can be described thus: Ferret Emesis (cisplatin-induced). The note with it: Mustela putorius, po, read-out: ferret emesis ID90. The class given is in vivo. On the procedure: Ten minutes later they are fed with approximately 100 g of tinned cat food. At 60 minutes following oral dosing, cisplatin (10 mg/kg) is given i.v. via a jugular vein catheter inserted under a brief period of halothane anaesthesia. The catheter is then removed, the jugular vein ligated and the skin incision closed. The ferrets recover rapidly from the anaesthetic and are mobile within 10-20 minutes. The animals are observed continuously during recovery from the anaesthetic and for 4 hours following the cisplatin injection, after which time the animals are killed humanely. The numbers of retches and vomits occurring during the 4 hours after cisplatin administration are recorded by trained observers.

The mark [3] stands for this setting: 5 min, read-out: gerbil foot-tapping (5 mins.) ID50.
The mark [4] stands for this setting: 24 hrs., read-out: gerbil foot-tapping (24 hrs.) ID50.

Turning to `C[C@@H](O[C@H]1OCCN(Cc2nn[nH]c2CN(C)C)[C@H]1c1ccccc1)c1cc(C(F)(F)F)cc(C(F)(F)F)c1` [Test Compound A, 2-(R)-(1-(R)-(3,5-bis(trifluoromethyl)phenyl)ethoxy)-4-(5-(dimethylamino)methyl-1,2,3-triazol-4-yl)methyl-3-(S)-phenylmorpholine], in experiment [1] (0.25 mg/kg s.c. alone), the “attenuation of separation-induced vocalisations compared with baseline” value was “approximately 25%”. The ED50 in experiment [1] (sc) is 0.5 mg/kg; in the experiment with foot tapping in gerbils (setting [3]), 0.12 mg/kg; with foot tapping in gerbils (setting [4]), 0.17 mg/kg.
`CNCCC(Oc1ccc(C(F)(F)F)cc1)c1ccccc1` (stereo not shown) [fluoxetine, reference compound]: the “attenuation of separation-induced vocalisations compared with baseline” value in experiment [1] (2 mg/kg i.p. alone) is “approximately 25%”.
With `C[C@@H](O[C@@H]1OCCN(Cc2nn[nH]c2CN(C)C)[C@@H]1c1ccccc1)c1cc(C(F)(F)F)cc(C(F)(F)F)c1` [Test Compound B, 2-(S)-(1-(R)-(3,5-bis(trifluoromethyl)phenyl)ethoxy)-4-(5-(dimethylamino)methyl-1,2,3-triazol-4-yl)methyl-3-(R)-phenylmorpholine, reference compound], the “attenuation of separation-induced vocalisations, administered alone” value in experiment [1] (0.25 mg/kg s.c. alone (FIG. 1)) was “failure of the less active enantiomer, Test Compound B (0.25 mg/kg s.c.) to attenuate separation-induced vocalisations when administered alone”.
Take `C[C@@H](O[C@H]1OCCN(Cc2n[nH]c(=O)[nH]2)[C@H]1c1ccc(F)cc1)c1cc(C(F)(F)F)cc(C(F)(F)F)c1` [2-(R)-(1-(R)-(3,5-bis(trifluoromethyl)phenyl)-ethoxy)-3-(S)-(4-fluorophenyl)-4-(3-(5-oxo-1H,4H-1,2,4-triazolo)methyl)-morpholine]: the ED50 in experiment [1] (po, 4 hrs. pretreatment) was determined as 0.73 mg/kg; in the experiment on foot tapping in gerbils (setting [3]) it was 0.36 mg/kg; in the experiment on foot tapping in gerbils (setting [4]), 0.33 mg/kg. The ED90 in experiment [2] was below 3 mg/kg.
